Results taken from paper PMC12090182, “Repurposing of the RIPK1-Selective Benzo[1,4]oxazepin-4-one Scaffold for the Development of a Type III LIMK1/2 Inhibitor” (ACS Chemical Biology, 2025).
Where two headings read alike, the source gives them in different places.

System: HEK293T cells
Type: cell-based
Conditions: HEK293T
In short: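 HEK293T and U2OS cells (DMEM) and MRC-9 fibroblasts (EMEM) exposed to compounds at 1 and 10 μM. Live-cell confocal imaging of cell shape and fluorescence before and at 12, 24 and 48 h. Normalized to 0.1% DMSO; biological duplicates with SEM.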

[1] = 1 µM, 0 h, biological replicate 1
[2] = 1 µM, 0 h, biological replicate 2
[3] = 1 µM, 12 h, biological replicate 1
[4] = 1 µM, 12 h, biological replicate 2
[5] = 1 µM, 24 h, biological replicate 1
[6] = 1 µM, 24 h, biological replicate 2
[7] = 1 µM, 48 h, biological replicate 1
[8] = 1 µM, 48 h, biological replicate 2
[9] = 10 µM, 0 h, biological replicate 1
[10] = 10 µM, 0 h, biological replicate 2
[11] = 10 µM, 12 h, biological replicate 1
[12] = 10 µM, 12 h, biological replicate 2
[13] = 10 µM, 24 h, biological replicate 1
[14] = 10 µM, 24 h, biological replicate 2
[15] = 10 µM, 48 h, biological replicate 1
[16] = 10 µM, 48 h, biological replicate 2

CC(C)C(=O)Nc1ncc(-c2cc(C(F)F)nn2-c2c(Cl)cccc2Cl)s1 [LIMKi3]
Cell count normalized to cells treated with DMSO control [1]: 1.015
Cell count per well [1]: 303
Population Fragmented Nuclei (%) [1]: 7.35%
Population Healthy Nuclei (%) [1]: 47.06%
Population Pyknosed Nuclei (%) [1]: 45.59%
Population apoptotic cell (%) [1]: 38.71%
Population cell that influence microtubule strucutre (%) [1]: 19.53%
Population with increased mitochondrial mass (%) [1]: 60.16%
Population with membrane disruption (%) [1]: 0.00%
Cell count normalized to cells treated with DMSO control [2]: 1.15
Cell count per well [2]: 263
Population Fragmented Nuclei (%) [2]: 1.64%
Population Healthy Nuclei (%) [2]: 65.98%
Population Pyknosed Nuclei (%) [2]: 32.38%
Population apoptotic cell (%) [2]: 63.29%
Population cell that influence microtubule strucutre (%) [2]: 26.71%
Population with increased mitochondrial mass (%) [2]: 85.09%
Population with membrane disruption (%) [2]: 0.00%
Cell count normalized to cells treated with DMSO control [3]: 0.9245
Cell count per well [3]: 421
Population Fragmented Nuclei (%) [3]: 4.05%
Population Healthy Nuclei (%) [3]: 82.03%
Population Pyknosed Nuclei (%) [3]: 13.92%
Population apoptotic cell (%) [3]: 40.00%
Population cell that influence microtubule strucutre (%) [3]: 44.44%
Population with increased mitochondrial mass (%) [3]: 48.77%
Population with membrane disruption (%) [3]: 0.62%
Cell count normalized to cells treated with DMSO control [4]: 1.019
Cell count per well [4]: 357
Population Fragmented Nuclei (%) [4]: 6.58%
Population Healthy Nuclei (%) [4]: 83.39%
Population Pyknosed Nuclei (%) [4]: 10.03%
Population apoptotic cell (%) [4]: 53.13%
Population cell that influence microtubule strucutre (%) [4]: 34.59%
Population with increased mitochondrial mass (%) [4]: 63.16%
Population with membrane disruption (%) [4]: 0.38%
Cell count normalized to cells treated with DMSO control [5]: 0.9573
Cell count per well [5]: 581
Population Fragmented Nuclei (%) [5]: 6.08%
Population Healthy Nuclei (%) [5]: 81.40%
Population Pyknosed Nuclei (%) [5]: 12.52%
Population apoptotic cell (%) [5]: 38.57%
Population cell that influence microtubule strucutre (%) [5]: 25.27%
Population with increased mitochondrial mass (%) [5]: 30.55%
Population with membrane disruption (%) [5]: 1.32%
Cell count normalized to cells treated with DMSO control [6]: 1.028
Cell count per well [6]: 464
Population Fragmented Nuclei (%) [6]: 11.83%
Population Healthy Nuclei (%) [6]: 78.42%
Population Pyknosed Nuclei (%) [6]: 9.74%
Population apoptotic cell (%) [6]: 30.95%
Population cell that influence microtubule strucutre (%) [6]: 20.41%
Population with increased mitochondrial mass (%) [6]: 38.46%
Population with membrane disruption (%) [6]: 0.30%
Cell count normalized to cells treated with DMSO control [7]: 0.8177
Cell count per well [7]: 827
Population Fragmented Nuclei (%) [7]: 14.02%
Population Healthy Nuclei (%) [7]: 79.47%
Population Pyknosed Nuclei (%) [7]: 6.51%
Population apoptotic cell (%) [7]: 28.85%
Population cell that influence microtubule strucutre (%) [7]: 17.17%
Population with increased mitochondrial mass (%) [7]: 22.36%
Population with membrane disruption (%) [7]: 1.10%
Cell count normalized to cells treated with DMSO control [8]: 1.021
Cell count per well [8]: 697
Population Fragmented Nuclei (%) [8]: 11.19%
Population Healthy Nuclei (%) [8]: 83.72%
Population Pyknosed Nuclei (%) [8]: 5.09%
Population apoptotic cell (%) [8]: 14.29%
Population cell that influence microtubule strucutre (%) [8]: 14.58%
Population with increased mitochondrial mass (%) [8]: 22.05%
Population with membrane disruption (%) [8]: 0.69%
Cell count normalized to cells treated with DMSO control [9]: 1.049
Cell count per well [9]: 313
Population Fragmented Nuclei (%) [9]: 6.13%
Population Healthy Nuclei (%) [9]: 53.26%
Population Pyknosed Nuclei (%) [9]: 40.61%
Population apoptotic cell (%) [9]: 42.45%
Population cell that influence microtubule strucutre (%) [9]: 17.27%
Population with increased mitochondrial mass (%) [9]: 58.99%
Population with membrane disruption (%) [9]: 0.00%
Cell count normalized to cells treated with DMSO control [10]: 1.189
Cell count per well [10]: 272
Population Fragmented Nuclei (%) [10]: 5.14%
Population Healthy Nuclei (%) [10]: 69.17%
Population Pyknosed Nuclei (%) [10]: 25.69%
Population apoptotic cell (%) [10]: 58.46%
Population cell that influence microtubule strucutre (%) [10]: 23.43%
Population with increased mitochondrial mass (%) [10]: 84.57%
Population with membrane disruption (%) [10]: 0.00%
Cell count normalized to cells treated with DMSO control [11]: 0.8125
Cell count per well [11]: 370
Population Fragmented Nuclei (%) [11]: 7.52%
Population Healthy Nuclei (%) [11]: 78.06%
Population Pyknosed Nuclei (%) [11]: 14.42%
Population apoptotic cell (%) [11]: 54.35%
Population cell that influence microtubule strucutre (%) [11]: 58.63%
Population with increased mitochondrial mass (%) [11]: 84.34%
Population with membrane disruption (%) [11]: 0.80%
Cell count normalized to cells treated with DMSO control [12]: 1.053
Cell count per well [12]: 369
Population Fragmented Nuclei (%) [12]: 5.29%
Population Healthy Nuclei (%) [12]: 71.47%
Population Pyknosed Nuclei (%) [12]: 23.24%
Population apoptotic cell (%) [12]: 41.77%
Population cell that influence microtubule strucutre (%) [12]: 57.61%
Population with increased mitochondrial mass (%) [12]: 88.89%
Population with membrane disruption (%) [12]: 1.23%
Cell count normalized to cells treated with DMSO control [13]: 0.6376
Cell count per well [13]: 387
Population Fragmented Nuclei (%) [13]: 7.23%
Population Healthy Nuclei (%) [13]: 75.14%
Population Pyknosed Nuclei (%) [13]: 17.63%
Population apoptotic cell (%) [13]: 40.98%
Population cell that influence microtubule strucutre (%) [13]: 62.69%
Population with increased mitochondrial mass (%) [13]: 85.38%
Population with membrane disruption (%) [13]: 0.38%
Cell count normalized to cells treated with DMSO control [14]: 0.8682
Cell count per well [14]: 392
Population Fragmented Nuclei (%) [14]: 3.68%
Population Healthy Nuclei (%) [14]: 77.34%
Population Pyknosed Nuclei (%) [14]: 18.98%
Population apoptotic cell (%) [14]: 47.76%
Population cell that influence microtubule strucutre (%) [14]: 63.74%
Population with increased mitochondrial mass (%) [14]: 83.88%
Population with membrane disruption (%) [14]: 0.73%
Cell count normalized to cells treated with DMSO control [15]: 0.5082
Cell count per well [15]: 514
Population Fragmented Nuclei (%) [15]: 8.84%
Population Healthy Nuclei (%) [15]: 75.22%
Population Pyknosed Nuclei (%) [15]: 15.95%
Population apoptotic cell (%) [15]: 52.70%
Population cell that influence microtubule strucutre (%) [15]: 69.63%
Population with increased mitochondrial mass (%) [15]: 76.50%
Population with membrane disruption (%) [15]: 0.29%
Cell count normalized to cells treated with DMSO control [16]: 0.7148
Cell count per well [16]: 488
Population Fragmented Nuclei (%) [16]: 9.82%
Population Healthy Nuclei (%) [16]: 75.45%
Population Pyknosed Nuclei (%) [16]: 14.73%
Population apoptotic cell (%) [16]: 34.85%
Population cell that influence microtubule strucutre (%) [16]: 65.68%
Population with increased mitochondrial mass (%) [16]: 74.26%
Population with membrane disruption (%) [16]: 1.78%
